Reference: patent publication US20120280189A1, “PERFLU[…] GASEOUS DIELECTRICS” (priority 2010, published 2012)

Test system: mice
Assay: short-term inhalation test, acute toxicity
Type: in vivo
Details: mice exposed for four hours at 100,000 ppm in air

`O=C(C(F)(F)C(F)(F)F)C(F)(C(F)(F)F)C(F)(F)F` [CF3CF2C(O)CF(CF3)2, 1,1,1,2,2,4,5,5,5-nonafluoro-4-trifluoromethyl-pentan-3-one] was tested, and the acute toxicity was “low acute toxicity”.
